Laboratory results from patent US4401604A, “Process for preparing thiosulfenamide derivatives of N-phosphonomethylglycine triesters” (Monsanto Company, priority 1981, dated 1983).

What was measured:
Assay type in all cases: in vivo
Quackgrass [1] = assay: Pre-emergent herbicidal activity; conditions: Table III; 11.2 kg/h; 2 WAT
Method in brief: (§1)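 Pre-emergence herbicide trial with compound incorporated into the top soil layer over planted seeds or propagules; sub-irrigated pans held two weeks under normal light, then scored for percent control versus untreated soil.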

Cocklebur [2] = assay: Pre-emergent herbicidal activity; conditions: Table III; 11.2 kg/h; 2 WAT
Method in brief: as §1

Barnyardgrass [3] = assay: Pre-emergent herbicidal activity; conditions: Table III; 11.2 kg/h; 2 WAT
Method in brief: as §1

Johnsongrass [4] = assay: Pre-emergent herbicidal activity; conditions: Table III; 11.2 kg/h; 2 WAT
Method in brief: as §1

Downy Brome [5] = assay: Pre-emergent herbicidal activity; conditions: Table III; 11.2 kg/h; 2 WAT
Method in brief: as §1

Yellow Nutsedge [6] = assay: Pre-emergent herbicidal activity; conditions: Table III; 11.2 kg/h; 2 WAT
Method in brief: as §1

Canada Thistle [7] = assay: Pre-emergent herbicidal activity; conditions: Table III; 11.2 kg/h; 2 WAT
Method in brief: as §1

Velvetleaf [8] = assay: Pre-emergent herbicidal activity; conditions: Table III; 11.2 kg/h; 2 WAT
Method in brief: as §1

Lambsquarters [9] = assay: Pre-emergent herbicidal activity; conditions: Table III; 11.2 kg/h; 2 WAT
Method in brief: as §1

Smartweed [10] = assay: Pre-emergent herbicidal activity; conditions: Table III; 11.2 kg/h; 2 WAT
Method in brief: as §1

Morningglory [11] = assay: Pre-emergent herbicidal activity; conditions: Table III; 11.2 kg/h; 2 WAT
Method in brief: as §1

Quackgrass [12] = assay: Post-emergence herbicidal activity, greenhouse; conditions: Table I, 4 WAT
Method in brief: (§2)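 Herbicidal effect is scored as an index of plant injury compared with unsprayed pans, observed approximately 2 and 4 weeks after application. Treatment is a post-emergence atomized spray applied to plants two to three weeks old, at the listed rates.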

Soybean = assay: Post-emergence herbicidal activity, greenhouse; conditions: Table II
Method in brief: as §2

Panicum Spp = assay: Post-emergence herbicidal activity, greenhouse; conditions: Table II
Method in brief: as §2

Wheat = assay: Post-emergence herbicidal activity, greenhouse; conditions: Table II
Method in brief: as §2

Sorghum = assay: Post-emergence herbicidal activity, greenhouse; conditions: Table II
Method in brief: as §2

Cocklebur [13] = assay: Post-emergence herbicidal activity, greenhouse
Method in brief: as §2

Barnyardgrass [14] = assay: Post-emergence herbicidal activity, greenhouse
Method in brief: as §2

Rice = assay: Post-emergence herbicidal activity, greenhouse; conditions: Table II
Method in brief: as §2

Wild Buckwheat = assay: Post-emergence herbicidal activity, greenhouse; conditions: Table II
Method in brief: as §2

Johnsongrass [15] = assay: Post-emergence herbicidal activity, greenhouse; conditions: Table I, 4 WAT
Method in brief: as §2

Downy Brome [16] = assay: Post-emergence herbicidal activity, greenhouse
Method in brief: as §2

Yellow Nutsedge [17] = assay: Post-emergence herbicidal activity, greenhouse; conditions: Table I, 4 WAT
Method in brief: as §2

Crabgrass = assay: Post-emergence herbicidal activity, greenhouse; conditions: Table II
Method in brief: as §2

Canada Thistle [18] = assay: Post-emergence herbicidal activity, greenhouse; conditions: Table I, 4 WAT
Method in brief: as §2

Velvetleaf [19] = assay: Post-emergence herbicidal activity, greenhouse
Method in brief: as §2

Sugar Beet = assay: Post-emergence herbicidal activity, greenhouse; conditions: Table II
Method in brief: as §2

Lambsquarters [20] = assay: Post-emergence herbicidal activity, greenhouse
Method in brief: as §2

Hemp Sesbania = assay: Post-emergence herbicidal activity, greenhouse; conditions: Table II
Method in brief: as §2

Smartweed [21] = assay: Post-emergence herbicidal activity, greenhouse
Method in brief: as §2

Morningglory [22] = assay: Post-emergence herbicidal activity, greenhouse
Method in brief: as §2

O=C(CN(CP(=O)(Oc1ccccc1)Oc1ccccc1)SSCCc1ccccc1)OCc1ccccc1 [IV, Glycine, N-[(diphenoxyphosphinyl)methyl]-N-[(2-phenylethyl)dithio]-, phenylmethyl ester]
0 (0-24% control): pre-emergent herbicidal activity index (Cocklebur [2]) | pre-emergent herbicidal activity index (Barnyardgrass [3]) | pre-emergent herbicidal activity index (Johnsongrass [4]) | pre-emergent herbicidal activity index (Downy Brome [5]) | pre-emergent herbicidal activity index (Yellow Nutsedge [6]) | pre-emergent herbicidal activity index (Velvetleaf [8]) | pre-emergent herbicidal activity index (Lambsquarters [9]) | pre-emergent herbicidal activity index (Smartweed [10]) | pre-emergent herbicidal activity index (Morningglory [11])
0 (0- 24% control): post-emergence herbicidal activity index (Soybean; 0.28 kg/h, 2 WAT) | post-emergence herbicidal activity index (Soybean; 1.12 kg/h, 4 WAT) | post-emergence herbicidal activity index (Panicum Spp; 0.28 kg/h, 2 WAT) | post-emergence herbicidal activity index (Panicum Spp; 1.12 kg/h, 4 WAT) | post-emergence herbicidal activity index (Wheat; 0.28 kg/h, 2 WAT) | post-emergence herbicidal activity index (Sorghum; 0.28 kg/h, 2 WAT) | post-emergence herbicidal activity index (Sorghum; 1.12 kg/h, 4 WAT) | post-emergence herbicidal activity index (Cocklebur [13]; Table II, 0.28 kg/h, 2 WAT) | post-emergence herbicidal activity index (Barnyardgrass [14]; Table II, 0.28 kg/h, 2 WAT) | post-emergence herbicidal activity index (Barnyardgrass [14]; Table II, 1.12 kg/h, 4 WAT) | post-emergence herbicidal activity index (Rice; 0.28 kg/h, 2 WAT) | post-emergence herbicidal activity index (Rice; 1.12 kg/h, 4 WAT) | post-emergence herbicidal activity index (Wild Buckwheat; 0.28 kg/h, 2 WAT) | post-emergence herbicidal activity index (Wild Buckwheat; 1.12 kg/h, 4 WAT) | post-emergence herbicidal activity index (Johnsongrass [15]; 11.2 kg/h) | post-emergence herbicidal activity index (Downy Brome [16]; Table I, 5.6 kg/h, 4 WAT) | post-emergence herbicidal activity index (Downy Brome [16]; Table II, 0.28 kg/h, 2 WAT) | post-emergence herbicidal activity index (Downy Brome [16]; Table II, 1.12 kg/h, 4 WAT) | post-emergence herbicidal activity index (Yellow Nutsedge [17]; 5.6 kg/h) | post-emergence herbicidal activity index (Crabgrass; 0.28 kg/h, 2 WAT) | post-emergence herbicidal activity index (Canada Thistle [18]; 5.6 kg/h) | post-emergence herbicidal activity index (Velvetleaf [19]; Table I, 5.6 kg/h, 4 WAT) | post-emergence herbicidal activity index (Velvetleaf [19]; Table II, 0.28 kg/h, 2 WAT) | post-emergence herbicidal activity index (Velvetleaf [19]; Table II, 1.12 kg/h, 4 WAT) | post-emergence herbicidal activity index (Sugar Beet; 0.28 kg/h, 2 WAT) | post-emergence herbicidal activity index (Lambsquarters [20]; Table II, 0.28 kg/h, 2 WAT) | post-emergence herbicidal activity index (Hemp Sesbania; 0.28 kg/h, 2 WAT) | post-emergence herbicidal activity index (Hemp Sesbania; 1.12 kg/h, 4 WAT) | post-emergence herbicidal activity index (Smartweed [21]; Table II, 0.28 kg/h, 2 WAT) | post-emergence herbicidal activity index (Morningglory [22]; Table II, 0.28 kg/h, 2 WAT) | post-emergence herbicidal activity index (Morningglory [22]; Table II, 1.12 kg/h, 4 WAT)
3 (75-100% control): pre-emergent herbicidal activity index (Canada Thistle [7])
4 (100% control): post-emergence herbicidal activity index (Barnyardgrass [14]; Table II, 5.6 kg/h, 4 WAT) | post-emergence herbicidal activity index (Crabgrass; 5.6 kg/h, 4 WAT) | post-emergence herbicidal activity index (Sugar Beet; 5.6 kg/h, 4 WAT)
1 (25-49% control): pre-emergent herbicidal activity index (Quackgrass [1]) | post-emergence herbicidal activity index (Quackgrass [12]; 11.2 kg/h) | post-emergence herbicidal activity index (Wheat; 1.12 kg/h, 4 WAT) | post-emergence herbicidal activity index (Cocklebur [13]; Table I, 5.6 kg/h, 4 WAT) | post-emergence herbicidal activity index (Cocklebur [13]; Table II, 1.12 kg/h, 4 WAT) | post-emergence herbicidal activity index (Rice; 5.6 kg/h, 4 WAT) | post-emergence herbicidal activity index (Downy Brome [16]; Table I, 11.2 kg/h, 4 WAT) | post-emergence herbicidal activity index (Yellow Nutsedge [17]; 11.2 kg/h) | post-emergence herbicidal activity index (Canada Thistle [18]; 11.2 kg/h) | post-emergence herbicidal activity index (Velvetleaf [19]; Table I, 11.2 kg/h, 4 WAT) | post-emergence herbicidal activity index (Hemp Sesbania; 5.6 kg/h, 4 WAT) | post-emergence herbicidal activity index (Smartweed [21]; Table I, 5.6 kg/h, 4 WAT) | post-emergence herbicidal activity index (Smartweed [21]; Table II, 1.12 kg/h, 4 WAT)
2 (50-74% control): post-emergence herbicidal activity index (Quackgrass [12]; 5.6 kg/h) | post-emergence herbicidal activity index (Soybean; 5.6 kg/h, 4 WAT) | post-emergence herbicidal activity index (Sorghum; 5.6 kg/h, 4 WAT) | post-emergence herbicidal activity index (Barnyardgrass [14]; Table I, 5.6 kg/h, 4 WAT) | post-emergence herbicidal activity index (Barnyardgrass [14]; Table I, 11.2 kg/h, 4 WAT) | post-emergence herbicidal activity index (Wild Buckwheat; 5.6 kg/h, 4 WAT) | post-emergence herbicidal activity index (Johnsongrass [15]; 5.6 kg/h) | post-emergence herbicidal activity index (Crabgrass; 1.12 kg/h, 4 WAT) | post-emergence herbicidal activity index (Velvetleaf [19]; Table II, 5.6 kg/h, 4 WAT) | post-emergence herbicidal activity index (Smartweed [21]; Table I, 11.2 kg/h, 4 WAT) | post-emergence herbicidal activity index (Smartweed [21]; Table II, 5.6 kg/h, 4 WAT) | post-emergence herbicidal activity index (Morningglory [22]; Table I, 5.6 kg/h, 4 WAT) | post-emergence herbicidal activity index (Morningglory [22]; Table I, 11.2 kg/h, 4 WAT) | post-emergence herbicidal activity index (Morningglory [22]; Table II, 5.6 kg/h, 4 WAT)
3 (75-99% control): post-emergence herbicidal activity index (Panicum Spp; 5.6 kg/h, 4 WAT) | post-emergence herbicidal activity index (Wheat; 5.6 kg/h, 4 WAT) | post-emergence herbicidal activity index (Cocklebur [13]; Table I, 11.2 kg/h, 4 WAT) | post-emergence herbicidal activity index (Cocklebur [13]; Table II, 5.6 kg/h, 4 WAT) | post-emergence herbicidal activity index (Downy Brome [16]; Table II, 5.6 kg/h, 4 WAT) | post-emergence herbicidal activity index (Sugar Beet; 1.12 kg/h, 4 WAT) | post-emergence herbicidal activity index (Lambsquarters [20]; Table I, 5.6 kg/h, 4 WAT) | post-emergence herbicidal activity index (Lambsquarters [20]; Table I, 11.2 kg/h, 4 WAT) | post-emergence herbicidal activity index (Lambsquarters [20]; Table II, 1.12 kg/h, 4 WAT) | post-emergence herbicidal activity index (Lambsquarters [20]; Table II, 5.6 kg/h, 4 WAT)
